“And” between values parts separate entries of the source, which are not always exact repeats. Identical values can stand only once. Inconclusive results and toxic doses are left out.

Drawing on PubChem BioAssay AID328 (DTP/NCI, 2004), this text covers T/C for 9 compounds.

The test system of this test is BDF1 mice, P388 leukemia ip, median survival T/C. Description: NCI In Vivo Anticancer Drug Screen. Data for tumor model P388 Leukemia (intraperitoneal) in B6D2F1 (BDF1) mice. The settings on record: endpoint: median survival time, higher = longer survival. A digest of the protocol: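 Compound-treated tumour-bearing mice were compared with vehicle-treated controls. Survival was recorded, and the value is the treated-group measurement divided by the control-group measurement (T/C).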

[1] abbreviates: dose: 50.0 mg/kg/injection, schedule: Q01DX009 (ip), vehicle: Klucel (hydroxypropylcellulose) (HPC).

For the compound `O=C(Oc1ccccc1[N+](=O)[O-])c1ccccc1`, the T/C reads like this: (dose: 25.0 mg/kg/injection, schedule: Q04DX003 (ip), vehicle: other) 100 % of control; (dose: 75.0 mg/kg/injection, schedule: Q04DX003 (ip), vehicle: other) 100 % of control; (dose: 150.0 mg/kg/injection, schedule: Q04DX003 (ip), vehicle: other) 95 % of control; (dose: 400.0 mg/kg/injection, schedule: Q04DX003 (ip), vehicle: other) 90 % of control.
Take `CCCCNC(C)(C)C(SS)c1ccc(Cl)cc1` (stereo unspecified): the T/C was 100 % of control under setting [1]; 115 % of control (dose: 100.0 mg/kg/injection, schedule: Q01DX009 (ip), vehicle: Klucel (hydroxypropylcellulose) (HPC)); 95 % of control (dose: 100.0 mg/kg/injection, schedule: Q04DX003 (ip), vehicle: Klucel (hydroxypropylcellulose) (HPC)); 105 % of control (dose: 200.0 mg/kg/injection, schedule: Q01DX009 (ip), vehicle: Klucel (hydroxypropylcellulose) (HPC)); 100 % of control (dose: 200.0 mg/kg/injection, schedule: Q04DX003 (ip), vehicle: Klucel (hydroxypropylcellulose) (HPC)).
Take `COc1ccc(C(=O)/C=C/c2ccc(OCc3ccccc3)c(OC)c2)cc1OC`: the T/C is 111 % of control (dose: 50.0 mg/kg/injection, schedule: Q01DX009 (ip), vehicle: water); 101 % of control (dose: 50.0 mg/kg/injection, schedule: Q04DX003 (ip), vehicle: water); 114 % of control (dose: 100.0 mg/kg/injection, schedule: Q01DX009 (ip), vehicle: water); 94 % of control (dose: 100.0 mg/kg/injection, schedule: Q04DX003 (ip), vehicle: water); 104 % of control (dose: 200.0 mg/kg/injection, schedule: Q01DX009 (ip), vehicle: water); 102 % of control (dose: 200.0 mg/kg/injection, schedule: Q04DX003 (ip), vehicle: water). Further, the T/C by setting is: (dose: 400.0 mg/kg/injection, schedule: Q01DX009 (ip), vehicle: water) 114 % of control; (dose: 400.0 mg/kg/injection, schedule: Q04DX003 (ip), vehicle: water) 100 % of control.
`C=C1C(=O)OC2/C=C(\CO)C(OC(C)=O)CC(O)/C(C)=C/C(OC(=O)C(C)CC)C12` (stereo unspecified): the T/C is 110 % of control (dose: 6.25 mg/kg/injection, schedule: Q01DX009 (ip), vehicle: Klucel (hydroxypropylcellulose) (HPC)); 108 % of control (dose: 12.5 mg/kg/injection, schedule: Q01DX009 (ip), vehicle: Klucel (hydroxypropylcellulose) (HPC)); 119 % of control (dose: 25.0 mg/kg/injection, schedule: Q01DX009 (ip), vehicle: Klucel (hydroxypropylcellulose) (HPC)); 117 % of control under setting [1].
In the case of `COC1=C(N=[N+]=[N-])C(=O)C(OC)=C(N=[N+]=[N-])C1=O`, the T/C (dose: 10.0 mg/kg/injection, schedule: Q04DX003 (ip), vehicle: saline) was 100 % of control; the T/C (dose: 20.0 mg/kg/injection, schedule: Q04DX003 (ip), vehicle: saline) was 100 % of control; the T/C (dose: 22.5 mg/kg/injection, schedule: Q01DX009 (ip), vehicle: saline) is 114 % of control; the T/C (dose: 40.0 mg/kg/injection, schedule: Q04DX003 (ip), vehicle: saline) was 108 % of control; the T/C (dose: 45.0 mg/kg/injection, schedule: Q01DX009 (ip), vehicle: saline) was 123 % of control; the T/C (dose: 90.0 mg/kg/injection, schedule: Q01DX009 (ip), vehicle: saline) was 114 % of control. In addition, the T/C (dose: 90.0 mg/kg/injection, schedule: Q04DX003 (ip), vehicle: saline) is 122 % of control.
Turning to `COC(=O)/C=C/CCOS(C)(=O)=O`, the T/C was 104 % of control (dose: 100.0 mg/kg/injection, schedule: Q04DX002 (ip), vehicle: saline with Tween-80); 124 % of control (dose: 200.0 mg/kg/injection, schedule: Q04DX002 (ip), vehicle: saline with Tween-80); 107 % of control (dose: 400.0 mg/kg/injection, schedule: Q04DX002 (ip), vehicle: saline with Tween-80).
As to `CC(=O)OC1CCC2C3CCC4=C(Cl)C(=O)CCC4C3CCC12C` (stereo unspecified), the T/C reads like this: (dose: 100.0 mg/kg/injection, schedule: Q04DX003 (sc), vehicle: steriod suspending solution) 90 % of control; (dose: 200.0 mg/kg/injection, schedule: Q04DX003 (sc), vehicle: steriod suspending solution) 100 % of control; (dose: 400.0 mg/kg/injection, schedule: Q04DX003 (sc), vehicle: steriod suspending solution) 100 % of control.
Take `Nc1ncn(C2OC(CO)C(O)C2O)c(=O)n1` (stereo unspecified): the T/C (dose: 0.16 mg/kg/injection, schedule: Q01DX009 (ip), vehicle: saline) was 91 % of control; the T/C (dose: 0.25 mg/kg/injection, schedule: Q01DX009 (ip), vehicle: saline) was 116 % of control; the T/C (dose: 0.38 mg/kg/injection, schedule: Q01DX009 (ip), vehicle: saline) is 150 % of control; the T/C (dose: 0.75 mg/kg/injection, schedule: Q01DX009 (ip), vehicle: saline) is 181 % of control; the T/C (dose: 0.9 mg/kg/injection, schedule: Q01DX009 (ip), vehicle: saline) was 210 % of control; the T/C (dose: 1.0 mg/kg/injection, schedule: Q01DX005 (ip), vehicle: saline) was 166 % of control. For the same compound, the T/C (dose: 1.5 mg/kg/injection, schedule: Q01DX009 (ip), vehicle: saline) is 195 % of control and 202 % of control; the T/C (dose: 1.9 mg/kg/injection, schedule: Q01DX009 (ip), vehicle: saline) is 235 % of control; the T/C (dose: 2.0 mg/kg/injection, schedule: Q01DX005 (ip), vehicle: saline) is 201 % of control; the T/C (dose: 2.2 mg/kg/injection, schedule: Q01DX009 (ip), vehicle: saline) was 235 % of control and 236 % of control and 216 % of control; the T/C (dose: 3.0 mg/kg/injection, schedule: Q01DX009 (ip), vehicle: saline) is 100 % of control; the T/C (dose: 3.3 mg/kg/injection, schedule: Q01DX009 (ip), vehicle: saline) is 260 % of control and 275 % of control and 280 % of control. Besides, the T/C was 204 % of control (dose: 4.0 mg/kg/injection, schedule: Q01DX005 (ip), vehicle: saline); 172 % of control (dose: 4.25 mg/kg/injection, schedule: Q04DX003 (ip), vehicle: saline); 254 % of control and 336 % of control and 365 % of control (dose: 5.0 mg/kg/injection, schedule: Q01DX009 (ip), vehicle: saline); 207 % of control (dose: 5.0 mg/kg/injection, schedule: Q04DX004 (ip), vehicle: saline); 104 % of control (dose: 6.0 mg/kg/injection, schedule: Q01DX009 (ip), vehicle: saline); 220 % of control (dose: 6.48 mg/kg/injection, schedule: Q04DX003 (ip), vehicle: saline). Besides, the T/C reads like this: (dose: 7.0 mg/kg/injection, schedule: Q04DX004 (ip), vehicle: saline) 216 % of control; (dose: 7.5 mg/kg/injection, schedule: Q01DX009 (ip), vehicle: saline) 100 % of control; (dose: 8.5 mg/kg/injection, schedule: Q01DX009 (ip), vehicle: saline) 90 % of control; (dose: 10.0 mg/kg/injection, schedule: Q04DX004 (ip), vehicle: saline) 112 % of control and 219 % of control; (dose: 10.8 mg/kg/injection, schedule: Q04DX003 (ip), vehicle: saline) 177 % of control; (dose: 11.0 mg/kg/injection, schedule: Q04DX004 (ip), vehicle: saline) 248 % of control. For the same compound, the T/C (dose: 12.0 mg/kg/injection, schedule: Q04DX003 (ip), vehicle: saline) was 225 % of control; the T/C (dose: 15.0 mg/kg/injection, schedule: Q04DX004 (ip), vehicle: saline) was 226 % of control and 106 % of control; the T/C (dose: 16.0 mg/kg/injection, schedule: Q04DX004 (ip), vehicle: saline) is 272 % of control; the T/C (dose: 19.0 mg/kg/injection, schedule: Q04DX003 (ip), vehicle: saline) was 233 % of control; the T/C (dose: 20.0 mg/kg/injection, schedule: Q04DX004 (ip), vehicle: saline) was 165 % of control; the T/C (dose: 44.0 mg/kg/injection, schedule: Q01DX001 (ip), vehicle: saline) was 176 % of control. Moreover, the T/C by setting is: (dose: 49.0 mg/kg/injection, schedule: Q01DX001 (ip), vehicle: saline) 170 % of control; (dose: 73.0 mg/kg/injection, schedule: Q01DX001 (ip), vehicle: saline) 176 % of control and 182 % of control; (dose: 110.0 mg/kg/injection, schedule: Q01DX001 (ip), vehicle: saline) 157 % of control and 190 % of control; (dose: 150.0 mg/kg/injection, schedule: Q01DX001 (ip), vehicle: saline) 120 % of control.
Turning to `Cc1ccc(C(=O)CCCCl)cc1C`, the T/C is 104 % of control (dose: 100.0 mg/kg/injection, schedule: Q04DX003 (ip), vehicle: saline with Tween-80); 104 % of control (dose: 200.0 mg/kg/injection, schedule: Q04DX003 (ip), vehicle: saline with Tween-80); 109 % of control (dose: 400.0 mg/kg/injection, schedule: Q04DX003 (ip), vehicle: saline with Tween-80).
